Reference: publication PMC7037232, “Effect of Cholesterol on the Organic Cation Transporter OCTN1 (SLC22A4)” (International Journal of Molecular Sciences, 2020)
Values joined by “and” are separate entries in the source; they are usually repeats but may differ in a detail not shown here. Equal values may be shown once.

Columns and labels:
recombinant OCTN1 [1] = biological target: T1, recombinant OCTN1 (Homo sapiens, UniProt Q9H015); experiment: [14C]-TEA uptake in proteoliposomes reconstituted with recombinant OCTN1 over-expressed in E. coli; assay type: biochemical; settings: for IC50: [14C]-TEA uptake 0.1 mM, 20 min
T1 construct: made in house; host or cells: E. coli
T1 sequence (Q9H015 1-551): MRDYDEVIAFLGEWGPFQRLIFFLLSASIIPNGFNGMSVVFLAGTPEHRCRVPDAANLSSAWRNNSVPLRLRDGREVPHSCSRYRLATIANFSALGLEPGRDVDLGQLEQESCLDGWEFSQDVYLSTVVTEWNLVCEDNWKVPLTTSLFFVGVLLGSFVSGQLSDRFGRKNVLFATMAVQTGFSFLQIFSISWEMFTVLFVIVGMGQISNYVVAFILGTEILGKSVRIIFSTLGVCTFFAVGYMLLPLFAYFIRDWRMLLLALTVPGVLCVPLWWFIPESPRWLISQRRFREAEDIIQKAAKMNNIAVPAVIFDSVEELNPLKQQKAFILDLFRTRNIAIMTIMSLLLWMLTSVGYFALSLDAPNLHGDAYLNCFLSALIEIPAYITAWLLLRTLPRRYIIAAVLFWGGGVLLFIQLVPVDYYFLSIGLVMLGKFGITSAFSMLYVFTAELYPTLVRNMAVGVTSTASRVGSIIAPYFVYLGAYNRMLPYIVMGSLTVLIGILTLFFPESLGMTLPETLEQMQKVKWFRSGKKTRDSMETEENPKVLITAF
Experimental: (§1) OCTN1 over-expressed in E. coli and purified as previously described was used for reconstitution in liposomes. The composition of the initial mixture used for reconstitution (except when differently indicated) was 200 µL of the purified protein (5 µg protein in 0.05% DDM), CHS at the indicated concentrations solubilized in 240 µL of 20 mM Tris/HCl (pH 7.5) and 5% Triton X-100 or buffer and Triton X-100 alone in the case of samples without CHS, 120 µL of 10% egg yolk phospholipids in the form of sonicated liposomes prepared as previously described, 16 mM ATP and (where indicated) in a final volume of 700 μL. The purified OCTN1 inserted in liposomal membrane by removing the detergent from mixed micelles containing detergent, protein, and phospholipids with Amberlite XAD-4 in a batch-wise procedure. Where indicated, proteoliposome internal volume was measured using a colorimetric phosphate method. In detail, 30 mM dipotassium phosphate (K2HPO4) was added to the reconstitution mixture. After elution from Sephadex G75 pre-equilibrated with 5 mM Tris/HCl (pH 7.5), 100 µL of sample were used for the colorimetric reaction. A solution containing 150 µL of 10% SDS was used to solubilize liposomal membranes. Then, 700 µL of a solution prepared with 10 mM hexammonium heptamolybdate 4-hydrate, 0.3 mM H2SO4 and 0.1 mM FeSO4 was added starting an incubation of 30 min in the dark. At the end, absorbance from each sample was measured at 578 nm. Internal volume in µL was derived from nmol of phosphate incorporated in liposomes.
(§2) Proteoliposomes reconstituted with the recombinant OCTN1 and added or not with CHS were incubated with MβCD as above described and then, MβCD was removed by chromatography on Sephadex G-75 column as described in Section 4.7.
(§3) Proteoliposomes (550 µL) were passed through a Sephadex G-75 column (0.7 cm diameter x 15 cm height) pre-equilibrated with 5 mM Tris/HCl (pH 7.5). The first 550 µL turbid eluate was collected and divided in aliquots (samples) of 100 µL each. Transport was started by adding 0.1 mM [^14C]-TEA or [^3H]-acetylcholine to the proteoliposome samples and stopped by adding 0.5 mM HgCl2 at the desired time interval. In control samples, the inhibitor was added at time zero according to the inhibitor stop method. Finally, each sample of proteoliposomes (100 µL) was passed through a Sephadex G-75 column (0.6 cm diameter × 8 cm height) in order to separate the external from the internal radioactivity. Liposomes were eluted with 1 mL of 50 mM NaCl and collected in 4ml of scintillation mixture, vortexed, and counted. The experimental values were corrected by subtracting the respective controls. The uptake time course data were interpolated using a first order rate equation from which rate constants were derived as the product of k (the first order rate constant) and the transport at the equilibrium. Data from dose-response experiments were fitted into an IC50 equation. For kinetic experiments the initial rate of transport expressed as nmol ⋅ min^−1 ⋅ mg protein^−1, was measured by stopping the reaction after 10 min, i.e., within the initial linear range of [^14C]-TEA or [^3H]-acetylcholine uptake into the proteoliposomes. Kinetic constants were estimated from interpolation of the experimental data into a Lineweaver–Burk equation. The Grafit (version 5.0.3) software was used for calculations.

recombinant OCTN1 [2] = biological target: T1, recombinant OCTN1; experiment: [3H]-acetylcholine uptake in proteoliposomes reconstituted with recombinant OCTN1 over-expressed in E. coli; assay type: biochemical; settings: for IC50: [3H]-acetylcholine uptake 0.1 mM, 20 min
Experimental: as §1, §3

[3] = Enzymatic quantitation of cholesterol/CHS in proteoliposome lipids; settings: proteoliposomes with initial 8.3% CHS, 10 mM MβCD
Experimental: as §2
Quantitation was performed using the Cholesterol Quantitation Kit MAK043 by Merck Life Science s.r.l., 20149 Milan, Italy,). Assay was performed in the presence of cholesterol esterase with absorbance measured on a microplate reader at 570 nm.

native human OCTN1 = biological target: T2, native human OCTN1 (Homo sapiens, UniProt Q9H015); experiment: [14C]-TEA uptake in proteoliposomes reconstituted with native OCTN1 extracted from HeLa cells; assay type: biochemical; settings: 0.1 mM [14C]-TEA
T2 construct: the native human OCTN1, the protein extracted from HeLa cells was exploited; endogenous in cells; host or cells: HeLa cells (Triton X-100 extract reconstituted in proteoliposomes)
T2 sequence (Q9H015 1-551): T1 sequence (Q9H015 1-551)
Experimental: HeLa cells pellet was treated with 150 µL TX-100 10%. After vortexing cells have been incubated 30 min on ice and then centrifuged 10 min 12.000× g at 4 °C. The cell membrane extract (supernatant) was used for the reconstitution. 30 µL supernatant were included to the reconstitution mixture containing 120 µL 10% egg yolk phospholipids in the form of sonicated liposomes prepared as previously described, 80 µL 10% Triton X-100 solution, 16 mM ATP, 7 µL of 500 mM Tris/HCl (pH 7.5) in a final volume of 700 μL.
Each HeLa cell sample or HeLa cell extract was incubated with 10 mM MβCD for 90 min at 37 °C under stirring. Then, the respective extracts were reconstituted in proteoliposomes.
Proteoliposomes (550 µL) were passed through a Sephadex G-75 column (0.7 cm diameter x 15 cm height) pre-equilibrated with 5 mM Tris/HCl (pH 7.5). […] Finally, each sample of proteoliposomes (100 µL) was passed through a Sephadex G-75 column (0.6 cm diameter × 8 cm height) in order to separate the external from the internal radioactivity. Liposomes were eluted with 1 mL of 50 mM NaCl and collected in 4ml of scintillation mixture, vortexed, and counted. […] For kinetic experiments the initial rate of transport expressed as nmol ⋅ min^−1 ⋅ mg protein^−1, was measured by stopping the reaction after 10 min, i.e., within the initial linear range of [^14C]-TEA or [^3H]-acetylcholine uptake into the proteoliposomes. […]

recombinant OCTN1 [4] = biological target: T1, recombinant OCTN1; experiment: Immunodetection of OCTN1 incorporated in proteoliposomes (anti-His antibody)
[5] = substrate: CC(=O)OCC[N+](C)(C)C; experiment: [3H]-acetylcholine uptake in proteoliposomes reconstituted with recombinant OCTN1 over-expressed in E. coli; assay type: biochemical, human; settings: other: in the absence of CHS; pH 7.5
Experimental: OCTN1 over-expressed in E. coli and purified as previously described was used for reconstitution in liposomes. The composition of the initial mixture used for reconstitution (except when differently indicated) was 200 µL of the purified protein (5 µg protein in 0.05% DDM), CHS at the indicated concentrations solubilized in 240 µL of 20 mM Tris/HCl (pH 7.5) and 5% Triton X-100 or buffer and Triton X-100 alone in the case of samples without CHS, 120 µL of 10% egg yolk phospholipids in the form of sonicated liposomes prepared as previously described, 16 mM ATP and (where indicated) in a final volume of 700 μL. […] Where indicated, proteoliposome internal volume was measured using a colorimetric phosphate method. […] At the end, absorbance from each sample was measured at 578 nm. […]
Proteoliposomes (550 µL) were passed through a Sephadex G-75 column (0.7 cm diameter x 15 cm height) pre-equilibrated with 5 mM Tris/HCl (pH 7.5). […] Finally, each sample of proteoliposomes (100 µL) was passed through a Sephadex G-75 column (0.6 cm diameter × 8 cm height) in order to separate the external from the internal radioactivity. Liposomes were eluted with 1 mL of 50 mM NaCl and collected in 4ml of scintillation mixture, vortexed, and counted. […]

Question: For `[Na+]` [Na^+], which IC50 (recombinant OCTN1 [1]; in the presence of 8.3% CHS) is on record?
Answer: 1700 ± 500 µM

Question: What about the IC50 (recombinant OCTN1 [2]; in the presence of 8.3% CHS) of the same molecule?
Answer: 2200 ± 200 µM

Question: Which IC50 (recombinant OCTN1 [1]; in the absence of CHS) does the source give for `[Cl][Hg][Cl]` [HgCl2] here?
Answer: 270 ± 50 µM

Question: What about the IC50 (recombinant OCTN1 [1]; in the presence of 8.3% CHS) of the same molecule?
Answer: 200 ± 30 µM

Question: Which IC50 (recombinant OCTN1 [1]; in the absence of CHS) does the source give for `CC[N+](CC)(CC)Cc1ccccc1` [TEBA, Benzyltriethylammonium] here?
Answer: 1600 ± 300 µM

Question: What about the IC50 (recombinant OCTN1 [1]; in the presence of 8.3% CHS) of the same molecule?
Answer: 1900 ± 700 µM

Question: Which “reduction of the initial CHS concentration” value [3] does the source give for Methyl-beta-CycloDextrin [MβCD] here?
Answer: 40%

Question: And the “decrease in transport activity” value (recombinant OCTN1 [1]; proteoliposomes with 8.3% CHS incubated with 10 mM MβCD, 0.1 mM [14C]-TEA)?
Answer: 31%

Question: And the “decrease of the native OCTN1 activity with respect to the control” value (native human OCTN1; HeLa cell extract incubated with 10 mM MβCD prior to reconstitution)?
Answer: 35%

Question: And the “decrease of the native OCTN1 activity with respect to the control” value (native human OCTN1; HeLa cells incubated with 10 mM MβCD prior to solubilization)?
Answer: 23%

Question: Which “transport of TEA relative to control (without added cholesterol)” value (recombinant OCTN1 [1]; 8.3% CHS (83 µg CHS/mg total lipids), 0.1 mM [14C]-TEA) does the source give for `CC(C)CCC[C@@H](C)[C@H]1CC[C@H]2[C@@H]3CC=C4C[C@@H](OC(=O)CCC(=O)O)CC[C@]4(C)[C@H]3CC[C@]12C` [CHS, Cholesteryl HemiSuccinate] here?
Answer: about double the control

Question: What about the “CHS amount giving optimal transport activity” value (recombinant OCTN1 [1]; [14C]-tetraethylamonium uptake) of the same molecule?
Answer: 83 µg CHS/ mg total lipids

Question: And the “transport of acetylcholine relative to control (without added cholesterol)” value (recombinant OCTN1 [2]; 8.3% CHS (83 µg CHS/mg total lipids), 0.1 mM [3H]-acetylcholine)?
Answer: about double the control

Question: What about the “CHS amount giving optimal transport activity” value (recombinant OCTN1 [2]; [3H]-acetylcholine uptake) of the same molecule?
Answer: 83 µg CHS/ mg total lipids

Question: What about the “relative concentration of immuno-stained OCTN1, normalized to 0% CHS (100%)” value (recombinant OCTN1 [4]; 2.1% CHS) of the same molecule?
Answer: 109 ± 14%

Question: What about the “relative concentration of immuno-stained OCTN1, normalized to 0% CHS (100%)” value (recombinant OCTN1 [4]; 4.2% CHS) of the same molecule?
Answer: 104 ± 5.8%

Question: And the “relative concentration of immuno-stained OCTN1, normalized to 0% CHS (100%)” value (recombinant OCTN1 [4]; 8.3% CHS)?
Answer: 106 ± 9.1%

Question: With `CC[N+](CC)(CC)CC` [TEA, Tetraethylammonium] as the molecule, how does the Km (recombinant OCTN1 [1]) read?
Answer: 900 µM and 800 µM

Question: And the Vmax of transport (recombinant OCTN1 [1])?
Answer: 36.1 ± 8.6 nmol ⋅ min^−1 ⋅ mg protein^−1 and 66.6 ± 16.4 nmol ⋅ min^−1 ⋅ mg protein^−1

Question: With `C[N+]1(C)CCOC(O)(c2ccc(-c3ccc(C4(O)C[N+](C)(C)CCO4)cc3)cc2)C1` (stereo not shown) [hemicholinium] as the molecule, how does the IC50 (recombinant OCTN1 [2]; in the absence of CHS) read?
Answer: 530 ± 46 µM

Question: And the IC50 (recombinant OCTN1 [2]; in the presence of 8.3% CHS)?
Answer: 300 ± 52 µM

Question: With `Nc1ncnc2c1ncn2[C@@H]1O[C@H](COP(=O)(O)OP(=O)(O)OP(=O)(O)O)[C@@H](O)[C@H]1O` [ATP] as the molecule, how does the “effect of intraliposomal ATP on transport” value (recombinant OCTN1 [1]; TEA uptake, 8.3% CHS) read?
Answer: stimulated the transport

Question: What about the “effect of intraliposomal ATP on transport” value (recombinant OCTN1 [2]; acetylcholine uptake, 8.3% CHS) of the same molecule?
Answer: stimulated the transport

B1: human recombinant OCTN1 (Homo sapiens) (protein)
chain: T1 sequence (Q9H015 1-551)
notes: made in house; host or cells: E. coli
Question: For B1, which Km [5] is on record?
Answer: 1100 ± 370 µM

Question: And the Vmax [5]?
Answer: 49.3 ± 12.4 nmol ⋅ min^−1 ⋅ mg protein^−1
